From ChEMBL document CHEMBL5523754, “Discovery of Biphenyl Derivatives to Target Hsp70-Bim Protein-Protein Interaction in Chronic Myeloid Leukemia by Scaffold Hopping Strategy” (J Med Chem, 2024)
pEC50, pIC50, pKd: −log10 of the molar value. In brackets after ≈: the same amount, converted by molar mass. Activity calls are given as the source filed them. The calls are words filed in the database; no cut-off is given here.

Legend:
[1] = species: Homo sapiens; assay: Inhibition of BimBH3 peptide stimulated human N-terminal 6xHis tagged Hsp70 ATPase activity expressed in Escherichia coli BL21 (DE3) at 0 to 50 uM preincubated for 30 mins followed by ATP addition and measured after 10 mins by luciferin based luminescence analysis; settings: dose 0-50 µM, time 40.0 min
[2] = Inhibition of N-terminal 6xHis tagged human Hsp70 expressed in Escherichia coli BL21 (DE3)/FAM-labeled BimBH3 peptide (unknown origin) protein protein interaction incubated for 10 mins by fluorescence polarization assay
[3] = species: Homo sapiens; assay: Effect on human N-terminal 6xHis tagged HSP70 basal ATPase activity expressed in Escherichia coli BL21 (DE3) at 0 to 50 uM preincubated for 30 mins followed by ATP addition and measured after 10 mins by luciferin based luminescence analysis; settings: dose 0-50 µM, time 40.0 min
[4] = Induction of apoptosis in human Imatinib-resistant K562-R3 cells incubated for 48 hrs by Annexin V-FITC staining based flow cytometry analysis; assay type: functional; settings: Imatinib-resistant K562-R3 cell
[5] = Binding affinity to N-terminal 6xHis tagged human HSP70 expressed in Escherichia coli BL21 (DE3) assessed as dissociation constant by ITC analysis
[6] = system: K562; assay: Inhibition of HSP70/Bim protein-protein interaction in human K562 cells incubated for 12 hrs by coimmunoprecipitation analysis; assay type: cell-based; settings: dose 0.5-3 µM
[7] = system: BV-173; assay: Induction of apoptosis in human BV-173 cells incubated for 48 hrs by Annexin V-FITC staining based flow cytometry analysis; assay type: functional, cell-based; settings: BV-173, 48 h
[8] = system: K562; assay: Induction of apoptosis in human K562 cells incubated for 48 hrs by Annexin V-FITC staining based flow cytometry analysis; assay type: functional, cell-based; settings: K562, 48 h
[9] = system: HEK293; assay: Induction of apoptosis in HEK293 cells assessed as apoptotic rate at 15 uM incubated for 48 hrs by Annexin V-FITC staining based flow cytometry analysis relative to control; assay type: toxicity, cell-based; settings: human, hek293, 48 h
[10] = system: K562; assay: Induction of apoptosis in Hsp70 shRNA-transfected human K562 cells assessed as increase in PARP cleavage at 2 uM incubated for 24 hrs by Western blot analysis; assay type: functional, cell-based
[11] = system: K562; assay: Inhibition of HSP70/Bim protein-protein interaction in human K562 cells assessed as reduction in Raf-1 protein expression at 2 uM incubated for 12 hrs by Western blot analysis; assay type: cell-based
[12] = system: BaF3; assay: Induction of apoptosis in mouse BaF3 cells assessed as apoptotic rate at 15 uM incubated for 48 hrs by Annexin V-FITC staining based flow cytometry analysis relative to control; assay type: toxicity, cell-based; settings: baf3, 48 h
[13] = system: K562; assay: Inhibition of HSP70/Bag3 protein-protein interaction in human K562 cells at 0.5 to 3 uM incubated for 12 hrs by coimmunoprecipitation analysis; assay type: cell-based; settings: dose 0.5-3 µM
[14] = system: K562; assay: Inhibition of HSP70/Bim protein-protein interaction in human K562 cells assessed as reduction in eIF4E protein expression at 2 uM incubated for 12 hrs by Western blot analysis; assay type: cell-based
[15] = system: K562; assay: Inhibition of HSP70/Bim protein-protein interaction in human K562 cells assessed as reduction in AKT protein expression at 2 uM incubated for 12 hrs by Western blot analysis; assay type: cell-based
[16] = species: Homo sapiens; assay: (§1) Inhibition of BimBH3 peptide stimulated human N-terminal 6xHis tagged Hsp70 ATPase activity expressed in Escherichia coli BL21 (DE3) preincubated for 30 mins followed by ATP addition and measured after 10 mins by luciferin based luminescence analysis; settings: time 40.0 min
[17] = as §1
[18] = Aqueous solubility of compound at pH 7 at 10 mg incubated for 24 hrs under shaking condition by HPLC method; assay type: physicochemical; settings: aqueous medium
[19] = system: K562; assay: Induction of apoptosis in Bim shRNA-transfected human K562 cells assessed as increase in PARP cleavage at 2 uM incubated for 24 hrs by Western blot analysis; assay type: functional, cell-based
[20] = system: K562; assay: Inhibition of HSP70/Bag3 protein-protein interaction in human K562 cells at 3 uM incubated for 12 hrs by coimmunoprecipitation analysis; assay type: cell-based
[21] = system: K562; assay: Inhibition of HSP70/Bim protein-protein interaction in human K562 cells assessed as reduction in AKT protein expression incubated for 12 hrs by Western blot analysis; assay type: cell-based
[22] = system: K562; assay: Inhibition of HSP70/Bim protein-protein interaction in human K562 cells assessed as reduction in Raf-1 protein expression incubated for 12 hrs by Western blot analysis; assay type: cell-based
[23] = system: K562; assay: Inhibition of HSP70/Bim protein-protein interaction in human K562 cells assessed as reduction in eIF4E protein expression incubated for 12 hrs by Western blot analysis; assay type: cell-based
[24] = system: K562; assay: Inhibition of HSP70/Bim protein-protein interaction in human K562 cells at 5 uM incubated for 12 hrs by coimmunoprecipitation analysis; assay type: cell-based
[25] = Induction of apoptosis in HEK293 cells incubated for 48 hrs by Annexin V-FITC staining based flow cytometry analysis; assay type: toxicity, cell-based; settings: human
[26] = species: Homo sapiens; assay: Inhibition of human N-terminal 6xHis tagged HSP70 basal ATPase activity expressed in Escherichia coli BL21 (DE3) at 0 to 50 uM preincubated for 30 mins followed by ATP addition and measured after 10 mins by luciferin based luminescence analysis; settings: dose 0-50 µM, time 40.0 min
[27] = system: K562; assay: Inhibition of HSP70/Bag3 protein-protein interaction in human K562 cells at 5 uM incubated for 12 hrs by coimmunoprecipitation analysis; assay type: cell-based
[28] = Induction of apoptosis in mouse BaF3 cells incubated for 48 hrs by Annexin V-FITC staining based flow cytometry analysis; assay type: toxicity, cell-based

Row | SMILES | inhibition [1] | pIC50 [2] | Activity [3] | also measured
1 | CN(C)CCn1c(=O)oc2ccc(NC(=O)NC3CCCCC3)cc21 | Active | < 5.00 | inactive | 
2 | Cc1cc(Oc2ccc(-c3cc(O)c(C#N)c(NCCN4CCCCC4)c3)cc2)cc(C)c1Cl |  | 7.15 | inactive | pEC50 [4]: 6.72; pKd [5]: 6.91; inhibition [6]: Dose-Dependent Effect; pEC50 [7]: 6.37; pEC50 [8]: 6.06; Activity [9]: < 10%; Activity [10]: inactive; inhibition [11]: Active; Activity [12]: < 10%; inhibition [13]: inactive; inhibition [14]: Active; inhibition [15]: Active; inhibition [16]: Dose-Dependent Effect; pIC50 [17]: 5.31; solubility thermodynamic at 24 h [18]: 29.4 µg/mL (≈ 61.8 µM); Activity [19]: inactive
3 | Cc1cc(Oc2ccc(-c3cc(O)c(C#N)c(NCCN(C)C)c3)cc2)cc(C)c1N | Active | 6.39 | inactive | 
4 | CCN(CC)CCn1cnc2ccc(NC(=O)NC3CCCCC3)cc21 | Active | < 5.00 | inactive | 
5 | CCN(CC)CCNC1=C(C#N)C(=O)c2cccc3c(SC4CCCCC4)ccc1c23 | Active | 6.10 | inactive | pEC50 [4]: 6.43; pKd [5]: 6.16; pEC50 [7]: 6.18; pEC50 [8]: 5.92; Activity [9]: < 10%; inhibition [20]: inactive; Activity [12]: < 10%; inhibition [21]: Active; inhibition [22]: Active; inhibition [23]: Active; solubility thermodynamic at 24 h [18]: 7.19 µg/mL (≈ 16.6 µM)
6 | CN(C)CCNc1cc(-c2ccc(OC3CCCCC3)cc2)cc(F)c1C#N | Active | 5.09 | inactive | 
7 | O=C(Nc1ccc2ccn(CCN3CCOCC3)c2c1)C1CCCCC1 | Active | < 5.00 | inactive | 
8 | O=C(Nc1ccc2ccn(CCN3CCOCC3)c2c1)NC1CCCCC1 | Active | < 5.00 | inactive | 
9 | CN(C)CCn1cnc2ccc(NC(=O)NC3CCCCC3)cc21 | Active | < 5.00 | inactive | 
10 | Cc1cc(C)cc(Oc2ccc(-c3cc(O)c(C#N)c(NCCN(C)C)c3)cc2)c1 | Active | 6.21 | inactive | 
11 | CN(C)CCNc1cc(-c2ccc(OC3CCCCC3)cc2)cc(CC(=O)O)c1C#N | Active | 5.44 | inactive | 
12 | N#Cc1ccc(COC[C@H]2O[C@@H](n3c(NCc4ccc(Cl)c(Cl)c4)nc4c(N)ncnc43)[C@H](O)[C@@H]2O)cc1 | Active |  |  | pEC50 [4]: 5.06; inhibition [24]: inactive; pEC50 [7]: 5.25; pEC50 [8]: 5.15; EC50 at 48 h [25]: 6460 nM; inhibition [26]: Active; inhibition [27]: inactive; EC50 at 48 h [28]: 7730 nM
13 | CN(C)CCn1ccc2ccc(NC(=O)NC3CCCCC3)cc21 | Active | < 5.00 | inactive | 
14 | O=C(Nc1ccc2ncn(CCN3CCOCC3)c2c1)NC1CCCCC1 | Active | < 5.00 | inactive | 
15 | CN(C)CCn1cnc2ccc(NC(=O)C3CCCCC3)cc21 | Active | < 5.00 | inactive | 
16 | CN(C)CCNc1cc(-c2ccc(Oc3ccccc3)cc2)cc(O)c1C#N | Active | 5.67 | inactive | 
17 | Cc1cc(-c2ccc(OC3CCCCC3)cc2)cc(NCCN(C)C)c1C#N | Active | < 5.00 | inactive | 
18 | Cc1cc(Oc2ccc(-c3cc(O)c(C#N)c(NCCN(C)C)c3)cc2)cc(C)c1Cl | Active | 6.48 | inactive | 
19 | CN(C)CCNc1cc(-c2ccc(OC3CCCCC3)cc2)cc(O)c1C#N | Active | 6.03 | inactive | 
20 | CCN(CC)CCNc1cc(-c2ccc(Oc3cc(C)c(Cl)c(C)c3)cc2)cc(O)c1C#N | Active | 6.55 | inactive | 
21 | CN(C)CCNc1cc(-c2ccc(OC34CC5CC(CC(C5)C3)C4)cc2)cc(O)c1C#N | Active | 5.06 | inactive | 
22 | Cc1cccc(Oc2ccc(-c3cc(O)c(C#N)c(NCCN(C)C)c3)cc2)c1 | Active | 6.09 | inactive | 
23 | Cc1cc(Oc2ccc(-c3cc(O)c(C#N)c(NCCN4CCCC4)c3)cc2)cc(C)c1Cl | Active | 7.05 | inactive | 
24 | CN(C)CCNc1cc(-c2ccc(Oc3cc(C(C)(C)C)cc(C(C)(C)C)c3)cc2)cc(O)c1C#N | Active | 6.06 | inactive | 
